These are literature values, as cited in US6743448B2 (priority 2000, dated 2004).

Data set [1] has as its system formation of DHT and androstenedione. As to conditions: 14C-testosterone as substrate, effective inhibitory concentrations, n 4, p<0.001.
The subject of the next data set is IGF-I mRNA. The conditions noted are these: relative to hypophysectomized control animals.
The subject of another data set is prostatic cells. As to conditions: 1 nM for 2-7 days.

For `CC(=O)[C@H]1CC[C@H]2[C@@H]3CCC4=CC(=O)CC[C@]4(C)[C@H]3CC[C@]12C` [Progesterone, progesterone], in data set [1], the “Inhibition of the formation of DHT” value is 10 fold and the “Inhibition of the formation of androstenedione” value is listed as 3-5 fold. For the compound `C[C@]12CC[C@H]3[C@@H](CCC4=CC(=O)CC[C@@]43C)[C@@H]1CC[C@@H]2O` [Testosterone, (17)-17-Hydroxyandrost-4-en-3-one], the “Increase of the IGF-I mRNA level” value in the data set with IGF-I mRNA is 30 times. Turning to `C[C@]12CCC(=O)C[C@@H]1CC[C@@H]1[C@@H]2CC[C@]2(C)[C@@H](O)CC[C@@H]12` [DHT, dihydrotestosterone], the “Increase of the IGF-I mRNA level” value in the data set on IGF-I mRNA is listed as 40 times. As for `COc1ccc2[nH]cc(CCNC(C)=O)c2c1` [Melatonin, melatonin], the “Effect on cell growth” value in the data set with prostatic cells was “inhibit cell growth”.
